Reference: PubChem BioAssay (NCI)
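Dose response: 5 concentrations. Exposure: 48 h. Format: 96-well plates. Endpoint: linear interpolation; highest concentration if not reached. Here, GI50 denotes the concentration required for 50% inhibition of growth. TGI marks complete inhibition of growth.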

How the values were obtained:
Experiment in all cases: NCI anticancer screen, dose series, 48 h
NCI-H522 lung = tested on: NCI-H522 lung
SK-OV-3 ovarian = tested on: SK-OV-3 ovarian
SK-MEL-5 melanoma = tested on: SK-MEL-5 melanoma
HCT-116 colon = tested on: HCT-116 colon
SK-MEL-2 melanoma = tested on: SK-MEL-2 melanoma
IGROV1 ovarian = tested on: IGROV1 ovarian
EKVX NSCLC = tested on: EKVX NSCLC
RPMI-8226 leukemia = tested on: RPMI-8226 leukemia
U251 CNS = tested on: U251 CNS
SF-539 CNS = tested on: SF-539 CNS

Row | Compound | TGI (NCI-H522 lung) [µM] | TGI (SK-OV-3 ovarian) [µM] | TGI (SK-MEL-5 melanoma) [µM] | TGI (HCT-116 colon) [µM] | TGI (SK-MEL-2 melanoma) [µM] | TGI (IGROV1 ovarian) [µM] | TGI (EKVX NSCLC) [µM] | TGI (RPMI-8226 leukemia) [µM] | TGI (U251 CNS) [µM] | TGI (SF-539 CNS) [µM] | GI50 (SK-OV-3 ovarian) [µM] | GI50 (SK-MEL-5 melanoma) [µM] | GI50 (SK-MEL-2 melanoma) [µM] | GI50 (RPMI-8226 leukemia) [µM] | GI50 (U251 CNS) [µM] | GI50 (SF-539 CNS) [µM] | GI50 (NCI-H522 lung) [µM] | GI50 (HCT-116 colon) [µM] | GI50 (IGROV1 ovarian) [µM] | GI50 (EKVX NSCLC) [µM]
1 | COc1ccc(C2=[S+]C(c3ccccc3)(c3ccccc3)c3ccccc32)cc1 | 79.8 | > 100 | 31.5 | 24.3 | 33.3 | > 100 | > 100 | 53.9 | 45.3 | 40.4 |  |  |  |  |  |  |  |  |  | 
2 | O=C1C(CO)=C[C@H](O)[C@H]2O[C@@H]12 | 164 | 561 | 389 | 225 | 345 | 473 | 215 | 332 | 381 | > 562 |  |  |  |  |  |  |  |  |  | 
3 | c1cc2c3c(c1)c1cc4c(cc1c[n+]3CC2)OCO4 | 10.1 | 97.2 | 9.08 | 75.9 | 9.35 | 63.5 | 14.4 | 14 | 18.8 | 15.4 |  |  |  |  |  |  |  |  |  | 
4 | c1ccc2c(c1)c1ccccc1n2Cn1c2ccccc2c2ccccc21 | > 100 |  | > 100 |  | > 100 | > 100 | > 100 | > 100 | > 100 |  |  |  |  |  |  |  |  |  |  | 
5 | COc1cccc2c1C(=O)c1c(O)c3c(c(O)c1C2=O)C[C@@](O)(C(=O)COC(=O)c1ccccc1)C[C@@H]3OC1CC(N)C(O)C(C)O1 (some centres not stated) |  | 1.44 | 0.712 |  | 1.99 |  |  | 0.61 | 0.273 | 1.13 | 0.264 | 0.2 | 0.563 | 0.193 | 0.113 | 0.254 |  |  |  | 
6 | Cc1ccc(Cl)cc1N=NC(=O)NNc1cc(Cl)ccc1C | 27.6 | 49.5 | 29.1 | 51.6 | 32.8 | 38.3 |  | > 100 | 59.6 |  |  |  |  |  |  |  |  |  |  | 
7 | O=C(NN1C(=O)C(Cl)C1c1cccc([N+](=O)[O-])c1)c1ccccc1O (configuration not stated) | > 100 | > 100 | > 100 | > 100 | > 100 | > 100 | > 100 | > 100 | > 100 | > 100 |  |  |  |  |  |  |  |  |  | 
8 | COc1cc(-c2ccc(N=Nc3ccc4c(S(=O)(=O)O)cc(S(=O)(=O)O)c(N)c4c3O)c(OC)c2)ccc1N=Nc1ccc2c(S(=O)(=O)O)cc(S(=O)(=O)O)c(N)c2c1O | > 100 | > 100 | > 100 | > 100 | > 100 | > 100 | > 100 | > 100 | > 100 | > 100 |  |  |  |  |  |  |  |  |  | 
9 | O=c1nc2ccc([N+](=O)[O-])cc2[n+]([O-])[nH]1 | > 100 | > 100 | > 100 | > 100 | > 100 | > 100 | > 100 | > 100 | > 100 | > 100 |  |  |  |  |  |  |  |  |  | 
10 | CCOc1cc(/C=C/C(=O)C(C(=O)/C=C/c2ccc(OC(=O)CNc3nc4ccccc4[nH]3)c(OCC)c2)C(=O)CNc2nc3ccccc3[nH]2)ccc1OC(=O)CNc1nc2ccccc2[nH]1 | 12.5 | 11.9 | 3.02 | 4.84 | 28.8 | > 100 | 5.37 | 2.51 | 4.34 | 3.1 | 3.17 | 1.6 | 3.26 | 0.754 | 1.94 | 1.61 | 3.29 | 1.63 | 2.93 | 1.99
11 | c1ccc2c(c1)NCc1cc3ccccc3nc1O2 | > 100 | > 100 | > 100 | > 100 | > 100 | > 100 | > 100 | > 100 | > 100 | > 100 |  |  |  |  |  |  |  |  |  | 
12 | C/C(=N\NC(=O)c1ccc(Cl)cc1)c1nc2ncccc2[nH]1 | 58.3 | 60.5 | 55.6 | > 100 | > 100 | > 100 | > 100 | > 100 | > 100 | 40.3 |  |  |  |  |  |  |  |  |  | 
13 | O=C(N/N=C\c1cccc2ccccc12)Nc1ccccc1 |  | > 100 | > 100 | > 100 | > 100 | > 100 |  | > 100 | > 100 |  |  |  |  |  |  |  |  |  |  | 
14 | O=C1CCC[C@H]2O[C@@H](COC(=O)c3ccccc3)C[C@H]2O1 |  | > 100 | > 100 |  | > 100 | > 100 | > 100 | > 100 | > 100 | > 100 |  |  |  |  |  |  |  |  |  | 
15 | Cc1cc(N/N=C/c2nc(-c3ccc(Cl)cc3)oc2C)c2cc(Br)ccc2n1 | 4.51 | 18.3 | 23.9 | 4.04 | 32.2 | 16.7 | 28.1 | 4.81 | 3.29 | 3.69 | 5.84 | 11.7 | 17.5 | 1.95 | 1.73 | 1.9 | 2.02 | 2 | 3.14 | 14.4
